Values after ≈ are worked out from the molar mass of the structure shown.

This is an account of results in patent EP0193283A1, “Thiazoloquinoline derivatives, process for their preparation and compositions containing them” (BEECHAM GROUP PLC, priority 1985, dated 1986).

Common to all, as to assay type: cell-based
The test system of one assay is M. hyorhinis ATCC 23234. In words: In vitro antimycoplasmal MIC. The following applies: Mesomycoplasma hyorhinis, ATCC23234, Friis' agarose medium or SP4 medium with 0.65% agarose.
For assay [1], the system named is M. hyopneumoniae x 5 strains. Briefly: In vitro antimycoplasmal MIC. Conditions: Mesomycoplasma hyopneumoniae, X5STRAINS, Friis' agarose medium or SP4 medium with 0.65% agarose.
For another assay, the system named is M. meleagridis 17529. In words: In vitro antimycoplasmal MIC. The following applies: Friis' agarose medium or SP4 medium with 0.65% agarose.
The next assay has as its system M. bovis NCTC 10131. Briefly: microbe, parasite or virus in culture. Conditions: NCTC10131.
The subject of another assay is M. dispar NCTC 10125. In words: In vitro antimycoplasmal MIC. The following applies: Friis' agarose medium or SP4 medium with 0.65% agarose.
The subject of another assay is M. iowae B11. In words: In vitro antimycoplasmal MIC. Conditions: Friis' agarose medium or SP4 medium with 0.65% agarose.
For the next assay, the system named is S.agalactiae SPAI. Briefly: Antibacterial MIC on agar. Conditions: Streptococcus agalactiae.
In the next assay the test system is S.aureus M12. Briefly: Antibacterial MIC on agar. Conditions: Staphylococcus aureus.
Assay [2] deals with M. pneumoniae x vs 9 strains. Briefly: In vitro antimycoplasmal MIC. The following applies: Mycoplasmoides pneumoniae, XVS9STRAINS, Friis' agarose medium or SP4 medium with 0.65% agarose.
Another assay has as its system M. synoviae ATCC 25204. Briefly: In vitro antimycoplasmal MIC. Conditions: Mycoplasmopsis synoviae, ATCC25204, Friis' agarose medium or SP4 medium with 0.65% agarose.
The test system of assay [3] is M. hyosynoviae ATCC 25591. Briefly: In vitro antimycoplasmal MIC. Conditions: Friis' agarose medium or SP4 medium with 0.65% agarose.
For another assay, the system named is M. gallisepticum S6. In words: In vitro antimycoplasmal MIC. Conditions: Mycoplasmoides gallisepticum, Friis' agarose medium or SP4 medium with 0.65% agarose.
A further assay concerns S.dysgalactiae FRO 7A. Briefly: Antibacterial MIC on agar. The following applies: Streptococcus dysgalactiae, FRO7A.

For the compound `CCNCC1CCN(c2cc3c(cc2F)c(=O)c(C(=O)O)c2scc(C)n23)C1` (stereo not shown) [Example 1, 8-[3-[(Ethylamino)methl]-1-pyrrolidinyl]-7-fluoro-1-methyl-5-oxo-5H-thiazolo[3,2-a]-quinoline-4-carboxylic acid], the MIC against M. hyorhinis ATCC 23234 is 0.05 ng/mL (≈ 0.124 nM); in assay [1], 0.001 ng/mL (≈ 0.00248 nM); with M. meleagridis 17529, 0.025 ng/mL (≈ 0.062 nM); against M. bovis NCTC 10131, 0.1 ng/mL (≈ 0.248 nM); against M. dispar NCTC 10125, 0.025 ng/mL (≈ 0.062 nM); against M. iowae B11, 0.025 ng/mL (≈ 0.062 nM). The MIC against S.agalactiae SPAI came to 1 µg/mL (≈ 2480 nM); in the assay with S.aureus M12 it was 0.12 µg/mL (≈ 297 nM); in assay [2], 0.13 ng/mL (≈ 0.322 nM); in the assay with M. synoviae ATCC 25204, 0.1 ng/mL (≈ 0.248 nM); in assay [3], 0.05 ng/mL (≈ 0.124 nM); with M. gallisepticum S6 it was 0.025 ng/mL (≈ 0.062 nM). In the assay with S.dysgalactiae FRO 7A, this compound registered an MIC of 0.5 µg/mL (≈ 1240 nM).
